Assay [1] addresses T1, ALK5 (TGFβR1; GST-modified TGFBR1 (200-503)) (Homo sapiens, UniProt P36897).
T1 construct: Using GST-Modified TGFBR1 (200-503); GST
T1 sequence (P36897 200-503): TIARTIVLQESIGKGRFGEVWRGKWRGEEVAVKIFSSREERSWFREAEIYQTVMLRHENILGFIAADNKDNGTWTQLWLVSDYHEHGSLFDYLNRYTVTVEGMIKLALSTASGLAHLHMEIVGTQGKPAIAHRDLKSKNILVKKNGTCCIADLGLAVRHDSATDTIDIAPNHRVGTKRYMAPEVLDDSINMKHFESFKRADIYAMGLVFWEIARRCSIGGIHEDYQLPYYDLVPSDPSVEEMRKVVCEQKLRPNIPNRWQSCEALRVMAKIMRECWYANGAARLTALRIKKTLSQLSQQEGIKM
As to the kind of experiment: ALK5 kinase inhibition assay (33P-ATP filter binding, Reaction Biology). The note with it: casein substrate, 200 μM ATP. Type of assay: biochemical. The protocol:
(§1) The protein sequences of the kinases targeted and accompanying information are described in publically available data base http://www.uniprot.org/uniprot/for ALK1 www.uniprot.org/uniprot/P37023, for ALK2 www.uniprot.org/uniprot/Q04771 and for ALK5 www.uniprot.org/uniprot/P36897. IC50 determination of the novel inhibitors described was performed at Reaction Biology Corp., Malvern, Pa., USA, with assay conditions open to public at www.reactionbiology.com/webapps/site/KinaseDetail.aspx?page=Kinases&id=1, and www.reactionbiology.com/webapps/site/Kinase Assay Protocol.aspx. In addition, they were specified previously in Anastassiadis et al. Nat. Biotechnol. 29(11): 1039-1045. doi:10.1038/nbt.2017.
A3) ALK5 Kinase Inhibition Assay Was Performed Similar to Procedures A1 and A2 Using GST-Modified TGFBR1 (200-503) and 1 mg/ml Casein as Substrate at 200 μM ATP.

The target of assay [2] is T2, ALK2 (GST-modified kinase domain ACVR1(145-509)) (Homo sapiens, UniProt Q04771).
T2 construct: N-terminally GST-modified kinase domain ACVR1(145-509); GST (N)
T2 sequence (Q04771 145-509): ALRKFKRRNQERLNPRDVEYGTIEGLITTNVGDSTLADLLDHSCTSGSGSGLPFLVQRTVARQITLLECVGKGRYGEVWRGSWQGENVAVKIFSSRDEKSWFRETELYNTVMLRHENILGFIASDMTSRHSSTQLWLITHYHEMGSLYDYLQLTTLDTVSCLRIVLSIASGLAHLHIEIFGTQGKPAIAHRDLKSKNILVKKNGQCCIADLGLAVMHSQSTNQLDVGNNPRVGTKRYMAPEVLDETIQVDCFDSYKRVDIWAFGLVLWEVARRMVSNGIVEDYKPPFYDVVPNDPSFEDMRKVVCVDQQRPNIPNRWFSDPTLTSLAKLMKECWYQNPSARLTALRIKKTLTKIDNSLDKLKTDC
As to the kind of experiment: ALK2 kinase inhibition assay (33P-ATP filter binding, Reaction Biology). Type of assay: biochemical. The note with it: casein substrate, 20 μM ATP (Km ATP), 120 min ambient temperature. As to the method: as §1
A2) ALK2 Kinase Inhibition Assay
(§2) was performed similar to procedure A1 with N-terminally GST-modified kinase domain ACVR1(145-509) and 1 mg/ml Casein as substrate in reaction buffer of 20 mM HEPES pH 7.5, 10 mM MgCl2, 1 mM EGTA, 0.02% Brij, 0.02 mg/ml BSA, 0.1 mM Na3VO4, 2 mM DTT, 1% DMSO. […] Reactions were carried out at ambient temperature for 120 min, followed by spotting of the reactions onto P81 ion exchange filter paper (Whatman Inc., Picataway, N.J., USA). Unbound phosphate was removed by extensive washing of filters in 0.75% phosphoric acid. After subtraction of background derived from control reactions without enzyme activity, kinase activity data was expressed as the percent remaining kinase activity in test samples compared to vehicle (DMSO) reactions. IC50 values and curve fits were obtained using Prism (GraphPad Software).

In assay [3] the target is T3, ALK1 (GST-modified kinase domain ACVRL1 (139-503)) (Homo sapiens, UniProt P37023).
T3 construct: N-terminally GST-modified kinase domain ACVRL1 (139-503); GST (N)
T3 sequence (P37023 139-503): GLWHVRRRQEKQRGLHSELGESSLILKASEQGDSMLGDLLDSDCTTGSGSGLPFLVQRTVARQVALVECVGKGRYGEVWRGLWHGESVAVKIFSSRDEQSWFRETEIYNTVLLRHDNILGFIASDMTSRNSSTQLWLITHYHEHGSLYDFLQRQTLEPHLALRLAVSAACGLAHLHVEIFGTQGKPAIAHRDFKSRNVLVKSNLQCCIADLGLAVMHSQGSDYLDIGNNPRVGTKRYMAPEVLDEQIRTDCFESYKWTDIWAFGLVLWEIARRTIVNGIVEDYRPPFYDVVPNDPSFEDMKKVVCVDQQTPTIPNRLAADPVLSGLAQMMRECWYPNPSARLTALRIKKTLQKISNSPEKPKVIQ
The assay is described as follows: ALK1 kinase inhibition assay (33P-ATP filter binding, Reaction Biology). In kind it is biochemical. The conditions noted are these: casein substrate, 100 μM ATP (Km ATP), 120 min ambient temperature. The protocol:
as §1
A1) ALK1 Kinase Inhibition Assay
as §2, with “performed” for “performed similar to procedure A1”, “domain ACVRL1 (139-503)” for “domain ACVR1(145-509)”, “and 20” for “and 1”

In assay [4] the test system is ALK1-mediated SMAD1/5 phosphorylation in HUVEC cells. The assay is described as follows: Cell-based immunofluorescence assay for ALK1-mediated SMAD1/5 phosphorylation in HUVEC cells. The note with it: Homo sapiens, 1.5 ng/ml BMP-9 with compound for 2 h, % nuclei with pSMAD1/5 signal, read-out: Smad 1/5 IC50. The source says:
In vitro cell-based Immunofluorescence-Assay for identification of inhibitors of ALK1-mediated SMAD1/5 phosphorylation in HUVEC cells:
ALK1 is a type I cell-surface receptor for the TGF-β superfamily of ligands. In adults ALK1 is mainly expressed on activated endothelial cells, e.g. during wound healing or in tumor angiogenesis. BMP9 and BMP10 are high affinity ligands for ALK1.
BMP9 and BMP10 binding leads to the phosphorylation of so-called Smad1 at Ser463 and Ser465 in the carboxy-terminal motif SSXS, as well as Smad5 and Smad8 at their corresponding sites. These phosphorylated Smads dimerize with the coactivating Smad4 and translocate to the nucleus, where they stimulate transcription of target genes.
Primary endothelial cells (HUVEC: Human Umbilical Vein Endothelial Cells; supplier Promocell) are cultivated in the culture medium obtained from Promocell (with supplements corresponding to 5% FCS) for maximum 5 passages, seeded into black 384-well culture plates with clear bottom (3000 cells/well/30 μl), and incubated for 16-24 hours at 37° C., 5% CO2 and 90% rH.
The following day cells were serum-starved for 2-3 h in order to stop TGF-ß-mediated signalling derived from ligands present in FBS. 1.5 ng/ml BMP-9 was than added in parallel with test compounds for 2 h at 37° C., 5% CO2 in order to identify compounds which block functional activity of ALK1 leading to phosphorylation and nuclear translocation of SMAD1/5/8.
After fixation (15 min 4% Formaldehyd in PBS) and permeabilization (10 min 0.2% Triton X-100 in PBS) an indirect immunocytochemical staining is performed with a specific Phospho-Smad1/5 (Ser463/465) antibody (Cell Signaling #9516) and Alexa488-labelled secondary anti-rabbit-IgG-antibody. DNA staining with Propidium Iodide allowed parallel cell counting. Image acquisition and analysis was performed on an MDS ImageXpress Ultra confocal High Content Reader using the image analysis software MetaXpress. Final read-out were % nuclei with a pSMAD1/5 signal above a defined background.
The final DMSO concentration in the assay was 0.5%. DMSO-treated HUVEC cells served as neutral control (=0%) and cells treated with 10 μM of a reference inhibitor described in a patent served as inhibitor control (=−100%). Raw data were normalised to the neutral and inhibitory references. The assay was performed as dose response (10 compound dilutions, 1 nM-30 μM).

The values below come from patent US10179777B2, “3-(1H-benzimidazol-2-yl)-1H-pyridin-2-one derivatives” (MERCK PATENT GMBH, priority 2015, dated 2019).

Counter-ions that a name gives are not always drawn.

Consider `CN1CCN(c2ccc3[nH]c(-c4cc(-c5ccnc6ccccc56)c[nH]c4=O)nc3c2)CC1` [Compound A29, 3-[5-(4-Methyl-piperazin-1-yl)-1H-benzimidazol-2-yl]-5-quinolin-4-yl-1H-pyridin-2-one], for which the IC50 in assay [1] stood at 1700 nM; in assay [2] it was 63 nM; in assay [3], 92 nM; in assay [4], 3700 nM.

On to `NC1CCN(c2ccc3[nH]c(-c4cc(-c5cccc(CO)c5)c[nH]c4=O)nc3c2)CC1` [Compound A26, 3-[5-(4-Amino-piperidin-1-yl)-1H-benzimidazol-2-yl]-5-(3-hydroxymethyl-phenyl)-1H-pyridin-2-one dihydrochloride], for which the IC50 in assay [1] is 1900 nM; in assay [2], 31 nM; in assay [3], 5 nM; in assay [4], 1800 nM.

For `O=c1[nH]cc(-c2cc(F)c(CO)c(F)c2)cc1-c1nc2cc(N3CCNCC3)ccc2[nH]1` [Compound A21, 5-(3,5-Difluoro-4-hydroxymethyl-phenyl)-3-(5-piperazin-1-yl-1H-benzimidazol-2-yl)-1H-pyridin-2-one dihydrochloride], the IC50 in assay [1] amounted to 5100 nM; in assay [2] it was 23 nM; in assay [3], 8.6 nM; in assay [4], 6100 nM.

For `O=c1[nH]cc(-c2ccnc3[nH]ccc23)cc1-c1nc2cc(N3CCCCC3)ccc2[nH]1` [Compound A43, 3-(5-Piperidin-1-yl-1H-benzimidazol-2-yl)-5-(1H-pyrrolo[2,3-b]pyridin-4-yl)-1H-pyridin-2-one], the IC50 in assay [1] worked out at 870 nM; in assay [2], 37 nM; in assay [3], 45 nM; in assay [4], 1800 nM.

Regarding `O=c1[nH]cc(-c2cccc(CO)c2)cc1-c1nc2cc(N3CCOCC3)ccc2[nH]1` [Compound A1, 5-(3-Hydroxymethyl-phenyl)-3-(5-morpholin-4-yl-1H-benzimidazol-2-yl)-1H-pyridin-2-one], the IC50 in assay [1] is 3600 nM; in assay [2], 94 nM; in assay [3], 39 nM; in assay [4] it was 1300 nM.

Consider `O=c1[nH]cc(-c2cccc(CO)c2F)cc1-c1nc2cc(N3CCNCC3)ccc2[nH]1` [Compound A23, 5-(2-Fluoro-3-hydroxymethyl-phenyl)-3-(5-piperazin-1-yl-1H-benzimidazol-2-yl)-1H-pyridin-2-one], for which the IC50 was determined as 1600 nM in assay [1], 22 nM in assay [2], 2 nM in assay [3] and 130 nM in assay [4].

Take `Cc1[nH]c2ncccc2c1-c1c[nH]c(=O)c(-c2nc3cc(N4CCN(C)CC4)ccc3[nH]2)c1` [Compound A52, 3-[5-(4-Methyl-piperazin-1-yl)-1H-benzimidazol-2-yl]-5-(2-methyl-1H-pyrrolo-[2,3-b]pyridin-3-yl)-1H-pyridin-2-one]: the IC50 in assay [1] worked out at 480 nM; in assay [2] it was 17 nM; in assay [3] it was 29 nM; in assay [4] it was 2600 nM.

Regarding `CN1CCN(c2ccc3[nH]c(-c4cc(-c5ccnc6[nH]ccc56)c[nH]c4=O)nc3c2)CC1` [Compound A50, 3-[6-(4-Methyl-piperazin-1-yl)-1H-benzimidazol-2-yl]-5-(1H-pyrrolo-[2,3-b]pyridin-4-yl)-1H-pyridin-2-one], the IC50 was 170 nM in assay [1], 5 nM in assay [2], 2 nM in assay [3] and 400 nM in assay [4].

Turning to `O=c1[nH]cc(-c2ccc(CO)cc2)cc1-c1nc2cc(N3CCNCC3)ccc2[nH]1` [Compound A16, 5-(4-Hydroxymethyl-phenyl)-3-(5-piperazin-1-yl-1H-benzimidazol-2-yl)-1H-pyridin-2-one], the IC50 in assay [1] came out at 2400 nM; in assay [2], 8 nM; in assay [3], 6 nM; in assay [4], 590 nM.

Turning to `O=c1[nH]cc(-c2ccnc3[nH]ccc23)cc1-c1nc2cc(N3CCNCC3)ccc2[nH]1` [Compound A44, 3-(5-Piperazin-1-yl-1H-benzimidazol-2-yl)-5-(1H-pyrrolo[2,3-b]pyridin-4-yl)-1H-pyridin-2-one dihydrochloride], the IC50 stood at 140 nM in assay [1], 6 nM in assay [2], 4 nM in assay [3] and 10000 nM in assay [4].

For the compound `O=c1[nH]cc(-c2ccnc3[nH]ccc23)cc1-c1nc2cc(N3CCOCC3)ccc2[nH]1` [Compound A41, 3-(5-Morpholin-4-yl-1H-benzimidazol-2-yl)-5-(1H-pyrrolo[2,3-b]pyridin-4-yl)-1H-pyridin-2-one], the IC50 in assay [1] worked out at 430 nM; in assay [2], 7 nM; in assay [3], 10 nM; in assay [4], 190 nM.
